According to article PMC12316891, “A bottom-up approach to find lead compounds in expansive chemical spaces” (Communications Chemistry, 2025):
Where two headings read alike, the source gives them in different places.

Tests used:
His6-BRD4 (BD1) = target: T1, His6-BRD4 (BD1) (Homo sapiens, UniProt O60885); assay: Surface plasmon resonance (SPR) single-dose screening; format: binding; parameters: key to SPR RESULT: Positive: compounds were considered as SPR hits also when their average signal was further than two standard deviations apart from the average signal of the blank samples (1% DMSO); details: for RUs at [10 µM]: SPR, compound 10 µM, 1% DMSO, n = 2, decimal comma; for SPR RESULT: single dose 10 µM, n = 2
T1 construct: A pET28 plasmid containing residues 44–168 of BRD4 (BD1), a 6xHis tag, a TEV protease cleavage site; made in house; host or cells: E. coli Rosetta (D3)

BRD4 (BD1) [1] = target: T2, BRD4 (BD1) (Homo sapiens, UniProt O60885); assay: Competitive HTRF TR-FRET binding assay (displacement of acetylated histone H4 peptide)
T2 construct: A pET28 plasmid containing residues 44–168 of BRD4 (BD1), a 6xHis tag, a TEV protease cleavage site; 6xHis (N, cleaved yes); made in house; host or cells: E. coli Rosetta (D3)
Description: To further quantitatively characterize the DSF/SPR hits compounds obtained in the single-dose screenings, we selected HTRF TR-FRET. Specifically, we employed a competitive HTRF TR-FRET experiment to measure the compound’s capacity to displace an acetylated peptide from the binding site of BRD4 (BD1). For each molecule, a 16-point concentration curve was titrated against the peptide-BRD (BD1) complex and incubated for 1.5 h. A compound was considered a positive binder if we could fit its titration curve to a sigmoidal curve to determine its IC50. […] Compound screening was carried out in 384-well, white, round-bottom, small-volume plates (CORNING) in a final volume of 20 µL of 50 mM HEPES (pH 7.4), 50 mM NaCl, 400 mM KF, 0.5 mM CHAPS, and 0.05% BSA. […] Then, the labeled anti-His6-XL665 antibody (CisBio) (10 nM) was added to the mixture and incubated for 15 min, before the Eu3+ cryptate-conjugated streptavidin (2 nM) (CisBio) was added and incubated for 15 min. All incubations were performed at room temperature. […] Titration of (+)−JQ1 was used as a positive control for each experiment.

BRD4 (BD1) [2] = target: T2, BRD4 (BD1); assay: Differential scanning fluorimetry (DSF) single-dose thermal shift screening; format: binding; details: DSF, compound 10 µM, BRD4 (BD1) 2 µM, n = 3, decimal comma; for ΔTm at 10 µM: read-out: ΔTm ºC at [10 µM]
[3] = 16-point titration 0.1 nM to 10 µM, n = 2, Negative = curve could not be fitted to a sigmoidal curve, read-out: TR-FRET IC50
[4] = 16-point titration 0.1 nM to 10 µM, n = 2, Negative = curve could not be fitted to a sigmoidal curve

SMILES	RUs at [10 µM] (His6-BRD4 (BD1))	SPR RESULT (His6-BRD4 (BD1))	IC50 (BRD4 (BD1) [1]; [3])	ΔTm at 10 µM (BRD4 (BD1) [2])	TR-FRET IC50 (nM) (BRD4 (BD1) [1]; [4])	IC50 by HTRF TR-FRET, range in words (BRD4 (BD1) [1]; potency range or dose-response behaviour)	IC50 (BRD4 (BD1) [1])	ΔTm ºC at [10 µM] (BRD4 (BD1) [2])
Cc1nnc(NC(=O)NCc2cccc(C(=O)NCC3CCCO3)c2)s1 (centres unmarked) [Compound 73, CC1=NN=C(NC(=O)NCC=2C=CC=C(C2)C(=O)NCC3CCCO3)S1]	23,59 ± 6,69 RUs	Positive	10700 nM	1.13 °C				
CCn1nnc2cc(C(=O)N3CCC(c4nnc(CNC(=O)c5ccncn5)s4)CC3)ccc21 [Compound 56, CCN1N=NC=2C=C(C=CC12)C(=O)N3CCC(CC3)C4=NN=C(CNC(=O)C=5C=CN=CN5)S4]	10,07 ± 8,75 RUs	Negative	722 nM	3.79 °C				
Cc1ncc(CNC(=O)NCc2cccc(S(=O)(=O)NC(C)C)c2)c(O)n1 [Compound 72, CC(C)NS(=O)(=O)C=1C=CC=C(CNC(=O)NCC=2C=NC(C)=NC2O)C1]	19,09 ± 5,61 RUs	Positive	92.9 nM	0.51 °C				
Cc1cc(C(=O)NCCc2nc3cc(Cl)ccc3[nH]2)n2ncnc2n1 [Compound 78, CC=1C=C(C(=O)NCCC2=NC=3C=C(Cl)C=CC3N2)N4N=CN=C4N1]	9,01 ± 0,76 RUs	Positive	170 nM	1.53 °C				
COc1ccc(NS(=O)(=O)c2cc(C(=O)Nc3ccc4nnc(C(C)C)n4c3)ccc2F)cc1 [Compound 14, COC=1C=CC(NS(=O)(=O)C=2C=C(C=CC2F)C(=O)NC=3C=CC4=NN=C(C(C)C)N4C3)=CC1]	23,29 ± 9,67 RUs	Negative	661 nM	1.94 °C				
CCCc1c(C(=O)NCc2cccc3c2OCCO3)[nH]c(C)c1C(C)=O [Compound 16, CCCC1=C(NC(C)=C1C(=O)C)C(=O)NCC=2C=CC=C3OCCOC23]	20,24 ± 10,15 RUs	Negative	1090 nM	-0.43 °C				
CCCc1c(C(=O)N2CCC(F)(F)C(CNC(=O)c3nc(C)c(C)s3)C2)[nH]c(C)c1C(C)=O (centres unmarked) [Compound 25, CCCC1=C(NC(C)=C1C(=O)C)C(=O)N2CCC(F)(F)C(CNC(=O)C3=NC(C)=C(C)S3)C2]	22,43 ± 8,33 RUs	Negative	149 nM	2.41 °C				
CNC(=O)c1ccc(-n2nc(Cn3cccn3)nc2-c2cn(C)c(=O)c3ccccc23)cc1 [Compound 50, CNC(=O)C=1C=CC(=CC1)N2N=C(CN3C=CC=N3)N=C2C4=CN(C)C(=O)C=5C=CC=CC45]	10,43 ± 9,29 RUs	Negative	1130 nM	2.29 °C				
Cc1ccc(CNC(=O)c2ccc3nnc(C)c(C)c3c2)c(OC2CCOC2)c1 (centres unmarked) [Compound 20, CC=1C=CC(CNC(=O)C=2C=CC=3N=NC(C)=C(C)C3C2)=C(OC4CCOC4)C1]	41,88 ± 12,55 RUs	Positive		2.33 °C	Negative			
Cc1ccc(-n2c(C)nnc2SCC(=O)N2CCOCCC23COC3)cc1 [Compound 94, CC1=NN=C(SCC(=O)N2CCOCCC32COC3)N1C=4C=CC(C)=CC4]	3,87 ± 1,96 RUs	Negative	27.9 nM	1.19 °C		low nM		
COc1ccc(-n2c(C)nnc2SCC(=O)NC2CCC3(CNC3)C2)cc1 (centres unmarked) [Compound 49, COC=1C=CC(=CC1)N2C(C)=NN=C2SCC(=O)NC3CCC4(CNC4)C3]	17,72 ± 5,47 RUs	Negative	105 nM	2.73 °C				
CC(NC(=O)CC1(C)CCCO1)C1(O)CN(C(=O)c2nsnc2O)C1 (centres unmarked) [Compound 89, CC(NC(=O)CC1(C)CCCO1)C2(O)CN(C2)C(=O)C3=NSN=C3O]	-1,39 ± 0,54 RUs	Negative	155 nM	0.19 °C				
CC(=O)c1c(C)[nH]c(C(=O)N2CCCC(c3cn(CC4CC5CC5C4)nn3)C2)c1C (centres unmarked) [Compound 29, CC(=O)C1=C(C)NC(C(=O)N2CCCC(C2)C3=CN(CC4CC5CC5C4)N=N3)=C1C]		Negative		-1.17 °C	Negative			
COc1cccc(-n2c(C)nnc2SCC(=O)N2CC3CCC2CN3C(=O)c2ccns2)c1 (centres unmarked) [Compound 35, COC=1C=CC=C(C1)N2C(C)=NN=C2SCC(=O)N3CC4CCC3CN4C(=O)C5=CC=NS5]	13,78 ± 5,32 RUs	Negative	1070 nM	0.69 °C				
CCOc1ccc(-c2cn(C3CC(NC(=O)c4cc(C)nc5ncnn45)C3)nn2)cc1F (centres unmarked) [Compound 82, CCOC=1C=CC(=CC1F)C2=CN(N=N2)C3CC(C3)NC(=O)C4=CC(C)=NC5=NC=NN45]	38,3 ± 6,87 RUs	Positive	29.7 nM	-0.24 °C				
COc1ccc(-n2c(C)nnc2SCC(=O)NCc2cc(C)nc(C)c2)cc1 [Compound 44, COC=1C=CC(=CC1)N2C(C)=NN=C2SCC(=O)NCC=3C=C(C)N=C(C)C3]	17,34 ± 14,82 RUs	Negative	5.83 nM	1.68 °C				
COc1ccc(CNc2ccc3ccn(C)c(=O)c3c2)cc1OCC(C)C [Compound 38, COC=1C=CC(CNC=2C=CC=3C=CN(C)C(=O)C3C2)=CC1OCC(C)C]	30,29 ± 13,03 RUs	Negative		0.25 °C	Negative			
COc1cccc(-n2c(C)nnc2SCC(=O)N2CC(n3cc(-c4ccc(F)cn4)nn3)C2)c1 [Compound 37, COC=1C=CC=C(C1)N2C(C)=NN=C2SCC(=O)N3CC(C3)N4C=C(N=N4)C=5C=CC(F)=CN5]	12,42 ± 11,24 RUs	Negative		0.77 °C	Negative			
COC(C)CC(=O)N1CCC(C2(O)CCN(C(=O)c3sc4nnc(C)c(C)c4c3N)C2)CC1 (centres unmarked) [Compound 39, COC(C)CC(=O)N1CCC(CC1)C2(O)CCN(C2)C(=O)C=3SC=4N=NC(C)=C(C)C4C3N]	11,34 ± 6,3 RUs	Negative	78.9 nM	1.12 °C				
CCCc1c(C(=O)N2CCCC2Cn2cc(-c3cc(C)nc(C)c3)nn2)[nH]c(C)c1C(C)=O (centres unmarked) [Compound 61, CCCC1=C(NC(C)=C1C(=O)C)C(=O)N2CCCC2CN3C=C(N=N3)C=4C=C(C)N=C(C)C4]	15,14 ± 5,89 RUs	Negative	79.4 nM	0.49 °C				
CCCc1c(C(=O)N2CCC(Cc3cn(-c4cccc(F)c4C)nn3)C2)[nH]c(C)c1C(C)=O (centres unmarked) [Compound 33, CCCC1=C(NC(C)=C1C(=O)C)C(=O)N2CCC(CC3=CN(N=N3)C=4C=CC=C(F)C4C)C2]	8,85 ± 1,09 RUs	Negative		0.1 °C	Negative			
Cc1cc(C)n2nc(CC(=O)NCC(C)(C)Cn3cc(-c4sccc4C)nn3)nc2n1 [Compound 64, CC=1C=CSC1C2=CN(CC(C)(C)CNC(=O)CC=3N=C4N=C(C)C=C(C)N4N3)N=N2]	25,91 ± 0,65 RUs	Positive		0.1 °C	Negative			
Cc1nnc2sc(C(=O)N(C)C3CN(C(=O)CCC(C)N(C)C)CC34CC4)c(N)c2c1C (centres unmarked) [Compound 59, CC(CCC(=O)N1CC(N(C)C(=O)C=2SC=3N=NC(C)=C(C)C3C2N)C4(CC4)C1)N(C)C]	13,73 ± 9,32 RUs	Negative		4.12 °C	Negative			
CCCc1c(C(=O)N2CCC(Cc3cn(C4CC4)nn3)CC2)[nH]c(C)c1C(C)=O [Compound 54, CCCC1=C(NC(C)=C1C(=O)C)C(=O)N2CCC(CC3=CN(N=N3)C4CC4)CC2]	17,03 ± 5,1 RUs	Negative	277 nM	2.91 °C				
COc1cccc(-n2c(C)nnc2SCC(=O)Nc2ccc(C(F)F)cc2)c1 [Compound 43, COC=1C=CC=C(C1)N2C(C)=NN=C2SCC(=O)NC=3C=CC(=CC3)C(F)F]	32,1 ± 9,99 RUs	Positive	1590 nM	1.99 °C				
COc1ccc(-n2c(C)nnc2SCC(=O)Nc2ccc(C)c(Cl)c2Cl)cc1 [Compound 55, COC=1C=CC(=CC1)N2C(C)=NN=C2SCC(=O)NC=3C=CC(C)=C(Cl)C3Cl]	11,56 ± 1,14 RUs	Positive					1020 nM	3,66 ± 0,12 ºC
Cc1cn2cc(C(=O)NC(C)CC(C)NC(=O)c3ccsn3)sc2n1 (centres unmarked) [Compound 91, CC(CC(C)NC(=O)C1=CN2C=C(C)N=C2S1)NC(=O)C=3C=CSN3]	8,08 ± 2,94 RUs	Negative	579 nM	0.44 °C				
Cc1nn(C)cc1C(=O)NC1CCC2(CC1)CCN(C(=O)c1sc3nnc(C)c(C)c3c1N)CC2 [Compound 24, CC1=NN(C)C=C1C(=O)NC2CCC3(CC2)CCN(CC3)C(=O)C=4SC=5N=NC(C)=C(C)C5C4N]	40,95 ± 7,16 RUs	Positive	1760 nM	2.35 °C				
COc1cccc(-n2nc(-c3cscn3)nc2-c2cn(C)c(=O)c3ccccc23)c1 [Compound 58, COC=1C=CC=C(C1)N2N=C(N=C2C3=CN(C)C(=O)C=4C=CC=CC34)C5=CSC=N5]	75,54 ± 39,86 RUs	Negative	511 nM	2.28 °C				
